The values below come from patent US7026327B2, “Pyrimidine derivatives useful as selective COX-2 inhibitors” (Glaxo Group Limited, priority 2001, dated 2006).

Broadly, the IC50 is the concentration at which inhibition is half-maximal.

Read-outs that look alike come from different tables or passages of the source.

One assay addresses T1, microsomal h-COX2 (Homo sapiens, UniProt P35354).
T1 construct: made in house; host or cells: baculovirus infected SF9 cells (microsomal preparation)
T1 sequence (P35354 18-604): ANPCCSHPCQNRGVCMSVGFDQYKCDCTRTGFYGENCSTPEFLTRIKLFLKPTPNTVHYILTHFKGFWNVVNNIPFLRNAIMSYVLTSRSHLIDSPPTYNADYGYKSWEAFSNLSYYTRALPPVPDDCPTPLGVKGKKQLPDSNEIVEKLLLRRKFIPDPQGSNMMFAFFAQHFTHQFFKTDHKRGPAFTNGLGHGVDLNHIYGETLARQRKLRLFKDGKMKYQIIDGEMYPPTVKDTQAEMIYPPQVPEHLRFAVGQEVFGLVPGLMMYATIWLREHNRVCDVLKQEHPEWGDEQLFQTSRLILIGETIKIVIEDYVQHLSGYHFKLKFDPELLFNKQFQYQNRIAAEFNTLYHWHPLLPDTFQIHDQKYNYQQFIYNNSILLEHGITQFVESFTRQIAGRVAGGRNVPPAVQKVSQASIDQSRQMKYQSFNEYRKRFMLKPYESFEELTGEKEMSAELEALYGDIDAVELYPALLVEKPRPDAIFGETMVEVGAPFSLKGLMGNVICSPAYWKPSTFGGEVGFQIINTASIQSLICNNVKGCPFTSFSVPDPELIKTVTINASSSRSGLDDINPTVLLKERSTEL
Description: Microsomal assay, h-COX2 microsomal preparation from baculovirus infected SF9 cells. The format is biochemical. How it is done:
Inhibitory activity against microsomal h-COX2 was assessed against a microsomal preparation from baculovirus infected SF9 cells. An aliquot of microsomal preparation was thawed slowly on ice and a 1/40,000 dilution prepared from it into the assay buffer (sterile water, degassed with argon containing 100 mM HEPES (pH 7.4), 10 mM EDTA (pH7.4), 1 mM phenol, 1 mM reduced glutathione, 20 mg/ml gelatin and 0.001 mM Hematin). Once diluted the enzyme solution was then sonicated for 5 seconds (Branson sonicator, setting 4, 1 cm tip) to ensure a homogeneous suspension. 155 μl enzyme solution was then added to each well of a 96-well microtitre plate containing either 5 μl test compound (40× required test concentration) or 5 μl DMSO for controls. Plates were then mixed and incubated at room temperature for 1 hour. Following the incubation period, 40 μl of 0.5 μM arachidonic acid was added to each well to give a final concentration of 0.1 μM. Plates were then mixed and incubated for exactly 10 minutes (room temperature) prior to addition of […] HCl (hydrochloric acid) to each well to stop the reaction. 25 μl of 1 M NaOH (sodium hydroxide) was then added to each well to neutralise the solution prior to determination of PGE2 levels by enzyme immunoassay (EIA).

Assay [1] has as its target T2, COX-1 (Homo sapiens, UniProt P23219). Description: Cell based assay, COS cells stably transfected with human COX-1, PGE2 release. Also noted: expressed in transfected cells; host or cells: COS cells, stably transfected. How it is done:
(§1) Inhibitory activity against human COX-1 and COX-2 was assessed in COS cells which had been stably transfected with cDNA for human COX-1 and human COX-2. 24 Hours prior to experiment, COS cells were transferred from the 175 cm^2 flasks in which they were grown, onto 24-well cell culture plates using the following procedure. The incubation medium (Dulbecco's modified eagles medium (DMEM) supplemented with heat-inactivated foetal calf serum (10% v/v), penicillin (100 IU/ml), streptomycin (100 μg/ml) and geneticin (600 μg/ml)) was removed from a flask of confluent cells (1 flask at confluency contains approximately 1×10^7 cells). 5 ml of phosphate buffered saline (PBS) was added to the flask to wash the cells. Having discarded the PBS, cells were then incubated with 5 ml trypsin for 5 minutes in an incubator (37°). The flask was then removed from the incubator and 5 ml of fresh incubation medium was added. The contents of the flask was transferred to a 250 ml sterile container and the volume of incubation medium subsequently made up to 100ml. 1 ml cell suspension was pipetted into each well of 4×24-well cell culture plates. The plates were then placed in an incubator (37° C., 95% air/5% CO2) overnight. If more than 1 flask of cells were required, the cells from the individual flasks were combined before being dispensed into the 24-well plates.
(§2) Following the overnight incubation, the incubation medium was completely removed from the 24-well cell culture plates and replaced with 250 μl fresh DMEM (37° C.). The test compounds were made up to 250× the required test concentration in DMSO and were added to the wells in a volume of 1 μl. Plates were then mixed gently by swirling and then placed in an incubator for 1 hour (37° C., 95% air/5% CO2). Following the incubation period, 10 μl of arachidonic acid (750 μM) was added to each well to give a final arachidonic acid concentration of 30 μM. Plates were then incubated for a further 10 minutes, after which the incubation medium was removed from each well of the plates and stored at −20° C., prior to determination of prostaglandin E2 (PGE2) levels using enzyme immunoassay. […] The selectivity ratio of inhibition of COX-1 versus COX-2 was calculated by comparing respective IC50 values.

In a further assay the target is T3, human COX-2 (Homo sapiens, UniProt P35354).
T3 construct: expressed in transfected cells; host or cells: COS cells, stably transfected
T3 sequence (P35354 18-604): T1 sequence (P35354 18-604)
Description: Cell based assay, COS cells stably transfected with human COX-2, PGE2 release. How it is done:
as §1, §2

For assay [2], the target named is T2, COX-1. Description: Microsomal assay, COX-1. Format: biochemical.
Setting [3] is: microsomal assay, PGE2 by EIA, 0.1 μM arachidonic acid, read-out: COX-2: IC50.

T2 sequence (P23219 24-599): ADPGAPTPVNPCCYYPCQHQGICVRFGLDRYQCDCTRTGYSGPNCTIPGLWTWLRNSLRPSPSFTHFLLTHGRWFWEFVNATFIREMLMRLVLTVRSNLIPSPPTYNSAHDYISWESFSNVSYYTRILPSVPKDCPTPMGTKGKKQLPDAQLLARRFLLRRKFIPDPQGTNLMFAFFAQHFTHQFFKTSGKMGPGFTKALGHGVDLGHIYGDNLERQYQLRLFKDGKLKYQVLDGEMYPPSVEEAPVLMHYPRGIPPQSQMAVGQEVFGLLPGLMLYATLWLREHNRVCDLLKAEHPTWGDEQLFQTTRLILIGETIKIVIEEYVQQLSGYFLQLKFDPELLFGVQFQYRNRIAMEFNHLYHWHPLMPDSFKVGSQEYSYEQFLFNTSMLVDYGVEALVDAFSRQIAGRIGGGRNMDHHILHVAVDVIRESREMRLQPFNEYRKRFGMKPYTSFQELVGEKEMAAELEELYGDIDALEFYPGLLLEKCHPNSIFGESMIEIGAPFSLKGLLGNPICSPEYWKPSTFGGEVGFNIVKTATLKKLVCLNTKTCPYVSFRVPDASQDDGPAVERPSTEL

The molecule `CS(=O)(=O)c1ccc(-c2cc(C(F)(F)F)nc(OCC3CCCC3)n2)cc1` [Example 9] gave an IC50 against microsomal h-COX2 of 0.022 µM. For `CS(=O)(=O)c1ccc(-c2cc(C(F)(F)F)nc(Oc3ccc(F)cc3)n2)cc1` [Example 1, 2-(4-Fluorophenoxy)-4-[4-(methylsulfonyl)phenyl]-6-(trifluoromethyl)pyrimidine], the IC50 on COX-1 [1] was 81.3 µM; at human COX-2, less than 0.001 µM. As for `CCCCOc1nc(-c2ccc(S(C)(=O)=O)cc2)cc(C(F)(F)F)n1` [Example 10, 2-Butoxy-4-[4-(methylsulfonyl)phenyl]-6-(trifluoromethyl)pyrimidine], the IC50 at microsomal h-COX2 (setting [3]) came out at 0.022 µM. Turning to `CS(=O)(=O)c1ccc(-c2cc(C(F)(F)F)nc(Oc3cncc(Cl)c3)n2)cc1` [Example 7, 2-[(5-chloropyridin-3-yl)oxy]-4-[4-(methylsulfony)phenyl]-6-(trifluoromethyl)pyrimidine], the IC50 is less than 0.01 µM on microsomal h-COX2 (setting [3]) and 79.9 µM on COX-1 [2].

As for `CS(=O)(=O)c1ccc(-c2cc(C(F)(F)F)nc(Oc3ccc(Br)cc3)n2)cc1` [Example 5], the IC50 against COX-1 [1] came to 61.4 µM; on human COX-2, 0.006 µM.

In turn, `CS(=O)(=O)c1ccc(-c2cc(C(F)(F)F)nc(OC3CCCCC3)n2)cc1` [Example 8, 2-(cyclohexyloxy)-4-[4-(methylsulfonyl)phenyl]-6-(trifluoromethyl)pyrimidine] registered an IC50 against COX-1 [2] of 1.86 µM. For the molecule `CS(=O)(=O)c1ccc(-c2cc(C(F)(F)F)nc(Oc3ccc(F)c(F)c3)n2)cc1` [Example 2], the IC50 at COX-1 [1] worked out at 9.67 µM; against human COX-2 it was 0.023 µM. As to `COc1ccc(Oc2nc(-c3ccc(S(C)(=O)=O)cc3)cc(C(F)(F)F)n2)cc1` [Example 3], the 50% inhibitory concentration (IC50) is 2.92 µM at COX-1 [1] and 0.004 µM against human COX-2. Take `Cc1ccc(Oc2nc(-c3ccc(S(C)(=O)=O)cc3)cc(C(F)(F)F)n2)cc1` [Example 6]: the IC50 is less than 0.01 µM at microsomal h-COX2 (setting [3]) and 3.75 µM at COX-1 [2].
